In patent US6787543B2, “Benzhydryl derivatives” (Fujisawa Pharmaceutical Co., Ltd., priority 2002, dated 2004):

Test system: not given
Test: not given
Details: not given

| Compound | melting point |
| --- | --- |
| COc1ccc(-n2nnnc2C(F)(F)F)cc1CN1C[C@@H]2CN(S(=O)(=O)C(C)C)CCN2[C@H](C(c2ccccc2)c2ccccc2)C1.Cl.Cl | 150 to 155 °C |
| CCCC(=O)N1CCN2[C@H](CN(Cc3cc(-n4nnnc4C(F)(F)F)ccc3OC)C[C@H]2C(c2ccccc2)c2ccccc2)C1.Cl.Cl | 162 to 166 °C |
| COc1ccc(C(F)(F)F)cc1CN1C[C@@H]2CN(C(C)=O)CCN2[C@H](C(c2ccccc2)c2ccccc2)C1.Cl.Cl | 147 to 150 °C |
| CCC(=O)N1CCN2[C@H](CN(Cc3cc(-n4nnnc4C(F)(F)F)ccc3OC)C[C@H]2C(c2ccccc2)c2ccccc2)C1.Cl.Cl | 171 to 175 °C |
| CCCS(=O)(=O)N1CCN2[C@H](CN(Cc3cc(-n4nnnc4C(F)(F)F)ccc3OC)C[C@H]2C(c2ccccc2)c2ccccc2)C1.Cl.Cl | 146 to 165 °C |
| COc1ccncc1CN1C[C@@H]2CN(C(C)=O)CCN2[C@H](C(c2ccccc2)c2ccccc2)C1.Cl.Cl.Cl | 205 to 210 °C |
| COc1ccc(-c2ccsc2)cc1CN1C[C@@H]2CN(C(C)=O)CCN2[C@H](C(c2ccccc2)c2ccccc2)C1.Cl.Cl | 177 to 181 °C |
| CCS(=O)(=O)N1CCN2[C@H](CN(Cc3cc(-n4nnnc4C(F)(F)F)ccc3OC)C[C@H]2C(c2ccccc2)c2ccccc2)C1.Cl.Cl | 143 to 146 °C |
| CC(=O)N1CCN2[C@H](CN(Cc3cc(-n4nnnc4C(F)(F)F)ccc3OC(C)C)C[C@H]2C(c2ccccc2)c2ccccc2)C1.Cl.Cl | 167 to 171 °C |
| COc1cc(OC)c(CN2C[C@@H]3CN(C(C)=O)CCN3[C@H](C(c3ccccc3)c3ccccc3)C2)c(OC)c1.Cl.Cl | 170 to 173 °C |
| COc1ccc(-n2nnnc2C(F)(F)F)cc1CN1C[C@@H]2CN(C(=O)OC(C)C)CCN2[C@H](C(c2ccccc2)c2ccccc2)C1.Cl.Cl | 147 to 150 °C |
| COc1ccc(-c2ccoc2)cc1CN1C[C@@H]2CN(C(C)=O)CCN2[C@H](C(c2ccccc2)c2ccccc2)C1.Cl.Cl | 173 to 177 °C |
| COc1ccc(-c2ccncc2)cc1CN1C[C@@H]2CN(C(C)=O)CCN2[C@H](C(c2ccccc2)c2ccccc2)C1.Cl.Cl.Cl | 210 to 215 °C |
| COc1ccc(-n2nnnc2C(F)(F)F)cc1CN1C[C@@H]2CN(C(=O)CC(C)C)CCN2[C@H](C(c2ccccc2)c2ccccc2)C1.Cl.Cl | 138 to 150 °C (dec.) |
| CCOc1ccc(-n2nnnc2C(F)(F)F)cc1CN1C[C@@H]2CN(C(C)=O)CCN2[C@H](C(c2ccccc2)c2ccccc2)C1.Cl.Cl | 162 to 165 °C |
| CCOC(=O)N1CCN2[C@H](CN(Cc3cc(-n4nnnc4C(F)(F)F)ccc3OC)C[C@H]2C(c2ccccc2)c2ccccc2)C1.Cl.Cl | 153 to 156 °C |
| COc1ccc(-n2nnnc2C(F)(F)F)cc1CN1C[C@@H]2CN(C(=O)C(C)C)CCN2[C@H](C(c2ccccc2)c2ccccc2)C1.Cl.Cl | 172 to 175 °C |

Test system: emesis in the dog
Test: Emesis in the Dog (apomorphine-induced retching and vomiting)
Type: in vivo
Details: adult female dogs; test compound i.v. at 1.0 mg/kg; 5 min later subcutaneous apomorphine (0.1 mg/0.5 ml/kg); observed for 60 min
Protocol: Individually housed adult female dogs (8 to 15 kg) were given an i.v. injection of a solution containing a test compound. 5 Min later the emetic responses (retching and vomiting) were induced by administration of subcutaneous apomorphine (0.1 mg/0.5 ml/kg) and observed for the next 60 min. The timing and number of retches and vomits observed were recorded for each animal. An individual animal was tested with at least 10 days between experiments.

| Compound | inhibition rate of emesis |
| --- | --- |
| COC(=O)N1CCN2[C@H](CN(Cc3cc(-n4nnnc4C(F)(F)F)ccc3OC)C[C@H]2C(c2ccccc2)c2ccccc2)C1.Cl.Cl [Example 28, (6R,9aR)-6-benzhydryl-8-[2-methoxy-5-[5-(trifluoromethyl)-1H-tetrazol-1-yl]benzyl]octahydropyrazino[1,2-a]pyrazine-2-carboxylic acid methyl ester dihydrochloride] | 90% |
